Article PMC5713249, “PeaTAR1B: Characterization of a Second Type 1 Tyramine Receptor of the American Cockroach, Periplaneta americana” (International Journal of Molecular Sciences, 2017)

How the values were obtained:
PeaTAR1B (PeaTAR1B-HA) [1] = target: T1, PeaTAR1B (PeaTAR1B-HA) (Periplaneta americana, UniProt A0A239QQ38); assay: attenuation of NKH 477-stimulated cAMP, CNG channel / Fluo-4 Ca2+ fluorescence in HEK […] flpTM cells; type: cell-based
T1 construct: stably expressed in HEK 293 flpTM cells
T1 sequence (A0A239QQ38 1-481): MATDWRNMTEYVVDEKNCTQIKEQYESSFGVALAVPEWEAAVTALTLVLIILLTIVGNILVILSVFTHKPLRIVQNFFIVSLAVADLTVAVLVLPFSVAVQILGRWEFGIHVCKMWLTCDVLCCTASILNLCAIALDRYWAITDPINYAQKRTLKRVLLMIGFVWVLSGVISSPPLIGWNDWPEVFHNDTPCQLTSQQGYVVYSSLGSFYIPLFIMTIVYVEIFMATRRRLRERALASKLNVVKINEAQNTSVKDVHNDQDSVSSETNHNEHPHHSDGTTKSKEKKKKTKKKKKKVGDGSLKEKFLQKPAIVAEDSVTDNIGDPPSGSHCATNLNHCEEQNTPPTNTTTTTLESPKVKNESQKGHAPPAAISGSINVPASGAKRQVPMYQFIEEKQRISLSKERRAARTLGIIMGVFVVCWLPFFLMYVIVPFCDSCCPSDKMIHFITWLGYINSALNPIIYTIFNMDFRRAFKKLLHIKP

PeaTAR1B (PeaTAR1B-HA) [2] = target: T1, PeaTAR1B (PeaTAR1B-HA); assay: block of tyramine-induced attenuation of NKH 477-stimulated cAMP, CNG channel / Fluo-4 fluorescence in HEK […] flpTM cells; type: cell-based

Row | Structure (SMILES) | EC50 (PeaTAR1B (PeaTAR1B-HA) [1]) [nM] | IC50 (PeaTAR1B (PeaTAR1B-HA) [2]) [nM]
1 | NCCc1ccc(O)cc1 [tyramine] | ~6.3 | 
2 | COC(=O)[C@@H]1[C@H]2C[C@H]3c4[nH]c5ccccc5c4CCN3C[C@@H]2CC[C@@H]1O [yohimbine] |  | 740
